This data set is described as follows: Adriamycin-induced focal segmental glomerulosclerosis (FSGS) in mice: urine protein, serum creatinine, BUN. It counts as in vivo. The note with it: 8-week-old BALB/c mice, adriamycin 0.1 mg/per 10 g body weight intravenously, day 15. The procedure:
8-week-old BALB/c mice were injected with adriamycin (0.1 mg/per 10 g body weight) intravenously to induce Focal Segmental Glomerulosclerosis (FSGS). Blood, urine, and kidney tissue samples were collected at days 0, 7, 15, and 20 after injection. More specifically, the blood samples were collected from the retro-orbital venous plexus and the urine samples were collected by gentle abdominal massage. The samples were centrifuged to remove insoluble substances and then stored in liquid nitrogen. When urine proteins are to be measured, the corresponding samples were collected on parafilms. The modified Bradford protein assay was performed to examine urine protein concentration, the picric acid colorimetric kit (Sigma 555-1) was used for detecting creatinine, and an urease assay kit provided by Sigma (640-5) was used for determining the level of blood urea nitrogen (BUN).

For the compound `COc1cccc2c1C(=O)c1c(O)c3c(c(O)c1C2=O)C[C@@](O)(C(=O)CO)C[C@@H]3O[C@H]1C[C@H](N)[C@H](O)[C@H](C)O1` [adriamycin], the serum creatinine level (control mice 0.48±0.03) amounted to 2.02 ± 0.17 mg/dL. Besides, the urine protein level (control mice 0.59±0.082) is 16.84 ± 3.13 mg/mL. Further, the “BUN (blood urea nitrogen) level” value (control mice 21.85±1.99) is 71.42 ± 8.09 mg/dL.

These data come from patent US8329651B2, “Method for renal disease diagnosis and prognosis using annexin A1 and Rab23 as markers” (National Defense Medical Center, priority 2009, dated 2012).
